Results on 19 compounds are retold here after patent publication US7749981B2, “Drug-eluting stents coated with non-nucleotide P2Y12 receptor antagonist compound” (Inspire Pharmaceuticals, Inc., priority 2005, dated 2010).

Read-outs that look alike come from different tables or passages of the source.

For orientation: IC50 means the point on the concentration scale where inhibition reaches its midpoint.

The subject of the assay is washed human platelets. The assay can be described thus: Inhibition of ADP-induced platelet aggregation in washed human platelets. Format: cell-based. As to conditions: for activity as antagonists of P2Y12-mediated platelet aggregation (in words): comment on Table 1 data; for IC50: agonist challenge (ADP) typically 1-5 μM, average of two experiments or more. As for the experimental part: Isolation of Platelets: Human blood is obtained from informed healthy adult volunteers. Blood is collected into one-sixth volume of acid/citrate/dextrose (ACD) buffer (85 mM sodium citrate, 65 mM citric acid, and 100 mM glucose). Collected blood is placed in a water bath at 37° C. for 30 minutes. Blood is then centrifuged at 275×g for 16 minutes at room temperature and the platelet-rich plasma is removed and centrifuged at 2200×g for 13 minutes at room temperature. The platelet pellet is resuspended in 40 mL of HEPES-buffered Tyrode's solution (137 mM NaCl, 2.7 mM KCl, 1 mM MgCl2, 2 mM CaCl2, 12 mM NaHCO3, 0.36 mM NaH2PO4, 5.5 mM glucose, 5 mM HEPES pH 7.4, 0.35% bovine serum albumin or 0.35% human serum albumin) containing 10 U/mL heparin and 5 μM (final concentration) prostaglandin 12 (PGI2). The platelet suspension is incubated in a 37° C. water bath for 10 minutes and then 5 μM (final conc.) PGI2 is added just before centrifugation at 1900×g for 8 minutes. The resulting pellet is resuspended in 40 mL of HEPES-buffered Tyrode's solution containing 5 μM (final concentration) PGI2 and then is incubated for 10 minutes in a 37° C. water bath. A small aliquot (500 μL) of the platelet suspension is removed for platelet counting. Prior to centrifugation 5 μM (final concentration) PGI2 is added to the suspension and then the suspension is centrifuged at 1900×g for 8 minutes. The pellet is resuspended at a density of 5×10^8 cells/mL in HEPES-buffered Tyrode's solution containing 0.05 U/mL apyrase.
Aggregation Studies: ADP-induced platelet aggregation is determined by measuring the transmission of light through a 0.5 ml suspension of stirred (1000 rpm) washed platelets in a lumi-aggregometer at 37° C. (Chrono-Log Corp. Havertown, Pa.). The baseline of the instrument is set using 0.5 ml of Hepes-buffered Tyrode's solution. Prior to aggregation measurements, the platelet suspension is supplemented with 1 mg/ml fibrinogen. Platelet aggregation is initiated by the addition of indicated concentrations of ADP or other agonists, and the light transmission is continuously recorded for at least 8 min. When inhibitors of platelet aggregation are tested, platelets are incubated for 2 min in the presence of indicated concentrations of inhibitor before addition of ADP or other agonists, and the response is recorded for at least 8 min. The potency of agonists and inhibitors of platelet aggregation is calculated from both the rate of aggregation and the maximal extent of aggregation obtained for each determination by fitting the data to a four-parameter logistic equation using the GraphPad software package (GraphPad Corp. San Diego, Calif.).
IC50 values represent the concentration of antagonist necessary to inhibit by 50% the aggregation elicited by a given concentration of ADP.
Platelet IC50 data were determined using washed human platelets, according to the protocol of example 14. Agonist challenge (ADP) typically in the range of 1-5 μM.

Setting [1] is: read-out: PLATELET DATA IC50 (uM) Washed Platelets, washed human platelets.
Where [2] appears, read: Homo sapiens, Platelet, read-out: PLATELET DATA IC50 (uM) Washed Platelets, washed human platelets.

Regarding “2-{6-[6-(3-Ethyl-ureido)-purin-9-yl]-2-phenylethynyl-tetrahydro-furo[3,4-d][1,3]dioxol-4-ylmethoxy}-nicotinic acid [Compound 26]”, the “activity as antagonists of P2Y12-mediated platelet aggregation (in words)” value (“activity as antagonists” for short) (washed human platelets) was “show P2Y12 antagonist activity”. In addition, the IC50 under setting [1] came to 1 µM.
On to `CCNC(=O)Nc1ncnc2c1ncn2C1OC(C(=O)N2CCC[C@H]2C(=O)O)C2OC(c3ccccc3)OC21` (stereo in doubt) [Compound 69, 1-{6-[6-(3-Ethyl-ureido)-purin-9-yl]-2-trans-phenyl-tetrahydro-furo[3,4-d][1,3]dioxole-4-carbonyl}-L-pyrrolidine-2-carboxylic acid], for which, for the setting “washed human platelets”, the “activity as antagonists” value is listed as “improved potency”. Also, the IC50 under setting [1] came out at 0.441 µM.
`CC1(C)OC2C(COc3ccc(C(=O)O)cc3C(=O)O)OC(n3cnc4c(NC(=O)Nc5ccccc5)ncnc43)C2O1` (stereo not shown) [Compound 1, 4-{2,2-Dimethyl-6-[6-(3-phenyl-ureido)-purin-9-yl]-tetrahydro-furo[3,4-d][1,3]dioxol-4-ylmethoxy}-isophthalic acid]: the half-maximal inhibitory concentration (IC50) under setting [2] came out at 6.6 µM. Moreover, the “activity as antagonists” value (washed human platelets) is “show P2Y12 antagonist activity”.
The corresponding values for `O=C(Nc1ccccc1)Nc1ncnc2c1ncn2C1OC(COc2ncccc2C(=O)O)C2OC(c3ccccc3C(F)(F)F)OC21` (stereo not shown) [Compound 14, 2-[6-[6-(3-Phenyl-ureido)-purin-9-yl]-2-(2-trifluoromethyl-phenyl)-tetrahydro-furo[3,4-d][1,3]dioxol-4-ylmethoxy]-nicotinic acid] are 8.1 µM and “show P2Y12 antagonist activity”.
The corresponding values for `O=C(Nc1ccccc1)Nc1ncnc2c1ncn2C1OC(COc2ncccc2C(=O)O)C2OC(c3ccc4ccccc4c3)OC21` (stereo not shown) [Compound 19, 2-{2-Naphthalen-2-yl-6-[6-(3-phenyl-ureido)-purin-9-yl]-tetrahydro-furo[3,4-d][1,3]dioxol-4-ylmethoxy}-nicotinic acid] are 18 µM and “show P2Y12 antagonist activity”.
Regarding `CCCCCCNC(=O)Nc1ncnc2c1ncn2C1OC(COc2ncccc2C(=O)O)C2OC(c3ccccc3)OC21` (stereo not shown) [Compound 24, 2-{6-[6-(3-Hexyl-ureido)-purin-9-yl]-2-phenyl-tetrahydro-furo[3,4-d][1,3]dioxol-4-ylmethoxy}-nicotinic acid], the IC50 under setting [2] is 2.15 µM. The “activity as antagonists” value (washed human platelets) was “show P2Y12 antagonist activity”.
For the compound `O=C(Nc1ncnc2c1ncn2C1OC(C(=O)N2CCCC2C(=O)O)C2OC(Cc3ccccc3)OC21)NC1CCCC1` (stereo not shown) [Compound 36, 1-{2-Benzyl-6-[6-(3-cyclopentyl-ureido)-purin-9-yl]-tetrahydro-furo[3,4-d][1,3]dioxole-4-carbonyl}-pyrrolidine-2-carboxylic acid], the IC50 under setting [2] was 0.75 µM. In addition, the “activity as antagonists” value (washed human platelets) is “show P2Y12 antagonist activity”.
In the case of `CS(=O)(=O)NC(=O)NCC1OC(n2cnc3c(NC(=O)Nc4ccccc4)ncnc32)C2OC(Cc3ccccc3)OC12` (stereo not shown) [Compound 37, 1-(9-{2-Benzyl-6-[(3-methylsulfonyl-ureido)-methyl]-tetrahydro-furo[3,4-d][1,3]dioxol-4-yl}-9H-purin-6-yl)-3-phenyl-urea], the IC50 under setting [2] was 15 µM. In addition, the “activity as antagonists” value (washed human platelets) is “show P2Y12 antagonist activity”.
`CCNC(=O)Nc1ncnc2c1ncn2C1OC(C(=O)N2CCC[C@H]2C(=O)O)C2O[C@H](c3ccccc3)OC21` (stereo partly drawn) [Compound 65, 1-{6-[6-(3-Ethyl-ureido)-purin-9-yl]-2-trans-phenyl-tetrahydro-furo[3,4-d][1,3]dioxole-4-carbonyl}-L-pyrrolidine-2-carboxylic acid]: the IC50 under setting [2] was 0.728 µM. For the same compound, the “activity as antagonists” value (washed human platelets) is recorded as “improved potency”.
The corresponding values for `CCNC(=O)Nc1ncnc2c1ncn2C1OC(C(=O)N2CCC[C@@H]2C(=O)O)C2O[C@H](/C=C/c3ccccc3)OC21` (stereo partly drawn) [Compound 70, 1-{6-[6-(3-Ethyl-ureido)-purin-9-yl]-2-trans-styryl-tetrahydro-furo[3,4-d][1,3]dioxole-4-carbonyl}-D-pyrrolidine-2-carboxylic acid] are 0.397 µM and “improved potency”.
With `CCNC(=O)Nc1ncnc2c1ncn2C1OC(COCc2ccccc2C(=O)O)C2O[C@H](c3ccccc3)OC21` (stereo partly drawn) [Compound 107, 2-{6-[6-(3-Ethyl-ureido)-purin-9-yl]-2-trans-phenyl-tetrahydro-furo[3,4-d][1,3]dioxol-4-ylmethoxymethyl}-benzoic acid], the IC50 reads like this: under setting [2], below 0.1 µM; under setting [1], 0.057 µM.
The corresponding values for `CCNC(=O)Nc1ncnc2c1ncn2C1OC(COCc2ccccc2C(=O)O)C2O[C@@H](c3ccccc3)OC21` (stereo partly drawn) [Compound 108, 2-{6-[6-(3-Ethyl-ureido)-purin-9-yl]-2-cis-phenyl-tetrahydro-furo[3,4-d][1,3]dioxol-4-ylmethoxymethyl}-benzoic acid] are below 0.1 µM and 0.098 µM.
`CCNC(=O)Nc1ncnc2c1ncn2C1CC(COCc2ncccc2C(=O)O)C2OC(/C=C/c3ccccc3)OC21` (stereo not drawn) [Compound 130, 2-{6-[6-(3-Ethyl-ureido)-purin-9-yl]-2-trans-styryl-tetrahydro-cyclopenta[1,3]dioxol-4-ylmethoxymethyl}-nicotinic acid]: under setting [1], the IC50 came out at 0.057 µM.
`CCNC(=O)Nc1ncnc2c1ncn2C1OC(CCc2c(F)cccc2C(=O)O)C2O[C@H](c3ccccc3)OC21` (stereo partly drawn) [Compound 158, 2-(2-{6-[6-(3-Ethyl-ureido)-purin-9-yl]-2-trans-phenyl-tetrahydro-furo[3,4-d][1,3]dioxol-4-yl}-ethyl)-3-fluoro-benzoic acid]: the IC50 under setting [2] was found to be 8 µM. Moreover, the “activity as antagonists” value (washed human platelets) is “active molecules”.
As to `CCNC(=O)Nc1ncnc2c1ncn2C1OC(CCC(=O)O)C2OC(C=Cc3ccccc3)OC21` (stereo not shown) [Compound 183, 3-{6-[6-(3-Ethyl-ureido)-purin-9-yl]-2-styryl-tetrahydro-furo[3,4-d][1,3]dioxol-4-yl}-propionic acid], the IC50 under setting [2] is 0.376 µM. In addition, the “activity as antagonists” value (washed human platelets) is “P2Y12 antagonist activity can be obtained”.
As for `CCNC(=O)Nc1ncnc2c1ncn2C1CC(COCC(=O)O)C2OC(C=Cc3ccccc3)OC21` (stereo not drawn) [Compound 189, {6-[6-(3-Ethyl-ureido)-purin-9-yl]-2-trans-styryl-tetrahydro-cyclopenta[1,3]dioxol-4-ylmethoxy}-acetic acid], the “activity as antagonists” value (washed human platelets) is on record as “P2Y12 antagonist activity can be obtained”. Moreover, the IC50 under setting [1] turned out to be 0.243 µM.
Turning to `CCNC(=O)Nc1ncnc2c1ncn2C1OC(CNCC(=O)O)C2O[C@H](/C=C/c3ccccc3)OC21` (stereo partly drawn) [Compound 191, ({6-[6-(3-Ethyl-ureido)-purin-9-yl]-2-trans-styryl-tetrahydro-furo[3,4-d][1,3]dioxol-4-ylmethyl}-amino)-acetic acid], the IC50 under setting [2] turned out to be 0.512 µM. Besides, under “washed human platelets”, the “activity as antagonists” value is on record as “P2Y12 antagonist activity can be obtained”.
For `CCNC(=O)Nc1ncnc2c1ncn2C1OC(C(=O)O)C2O[C@H](/C=C/c3ccccc3)OC21` (stereo partly drawn) [Compound 210, 6-[6-(3-Ethyl-ureido)-purin-9-yl]-2-trans-styryl-tetrahydro-furo[3,4-d][1,3]dioxole-4-carboxylic acid] the same measures were 0.163 µM and “P2Y12 antagonist activity can be obtained”.
For `CCNC(=O)Nc1ncnc2c1ncn2C1CC(COC(=S)NCC(=O)O)C2O[C@H](/C=C/c3ccccc3)OC21` (stereo partly drawn) [Compound 233, {6-[6-(3-Ethyl-ureido)-purin-9-yl]-2-trans-styryl-tetrahydro-cyclopenta[1,3]dioxol-4-ylmethoxythiocarbonylamino}-acetic acid] the same measures were 0.503 µM and “show P2Y12 antagonist activity”.
